Measured values from US9486536B2 (Immunomedics, Inc., priority 2013, dated 2016).

Columns and labels:
[1] = test system: Trop-2-positive human pancreatic adenocarcinoma cell line (BxPC-3); test: ADCC with PBMCs, effector to target ratio 100:1; type: cell-based; details: 33.3 nM
Procedure: The ADCC activity of various hRS7-ADC conjugates was determined in comparison to hRS7 IgG (FIG. 17). PBMCs were purified from blood purchased from the Blood Center of New Jersey. A Trop-2-positive human pancreatic adenocarcinoma cell line (BxPC-3) was used as the target cell line with an effector to target ratio of 100:1. ADCC mediated by hRS7 IgG was compared to hRS7-Pro-2-PDox, hRS7-CL2A-SN-38, and the reduced and capped hRS7-NEM. All were used at 33.3 nM.

[2] = test system: NCI-N87 human gastric carcinoma xenografts; test: therapy of NCI-N87 xenografts in nude mice; type: in vivo; details: for effect on tumors, one treatment cycle: 4×45 μg; for therapeutic response (FIG. 3): 2.25 mg/kg protein dose twice weekly×2 weeks, compared with hMN-14 conjugate
Procedure: FIG. 3A. Therapy in nude mice bearing s.c. human tumor xenografts using 2.25 mg/kg protein dose (0.064 mg/kg of drug dose) of MAb-P2PDox conjugates twice weekly×2 weeks in nude mice (n=7) with NCI-N87 human gastric carcinoma xenografts.
Tumor size was determined by caliper measurements of length (L) and width (W) with tumor volume calculated as (L×W^2)/2. Tumors were measured and mice weighed twice a week. Mice were euthanized if their tumors reached >1 cm^3 in size, lost greater than 15% of their starting body weight, or otherwise became moribund. Statistical analysis for the tumor growth data was based on area under the curve (AUC) and survival time. Profiles of individual tumor growth were obtained through linear curve modeling. An f-test was employed to determine equality of variance between groups prior to statistical analysis of growth curves. A two-tailed t-test was used to assess statistical significance between all the various treatment groups and non-specific controls. For the saline control analysis a one-tailed t-test was used to assess significance. Survival studies were analyzed using Kaplan-Meier plots (log-rank analysis), using the Prism GraphPad Software (v4.03) software package (Advanced Graphics Software, Inc.; Encinitas, Calif.). All doses in preclinical experiments are expressed in antibody amounts. In terms of drug, 100 μg of antibody (5 mg/kg) in a 20-g mouse, for example, carries 1.4 μg-2.8 μg ([…]) of P2PDox equivalent dose when using an ADC with 3-6 drugs/IgG.
Using this dosing regimen, we examined the therapeutic effect of hRS7-P2PDox in 2 human tumor xenograft models, Capan-1 (pancreatic cancer) and NCI-N87 (gastric cancer). Therapy began 7 days after tumor transplantation in nude mice.
Anti-TROP-2 antibody conjugate, hRS7-P2PDox, was evaluated in nude mice bearing NCI-N87 human gastric cancer xenografts by administering a single bolus protein dose of 9 mg/kg, 6.75 mg/kg, 4.5 mg/kg, 2.25 mg/kg, or 1 mg/kg. The therapy was started when the mean tumor volume (mTV) was 0.256 cm^3.
Further in vivo efficacy studies were performed in nude mice implanted with NCI-N87 human gastric cancer xenografts (FIG. 13A-F).
The effect of varying dosage schedule on anti-tumor efficacy was examined (FIG. 14, FIG. 19A-G). The experiment began 9 days after tumor implantation when mean tumor volume for all groups was 0.383 cm^3, and ended on day 93 (84 days after initiation of therapy).

[3] = test system: Capan-1, BxPC-3 and AsPC-1 human pancreatic tumor lines and AGS, NCI-N87 and LS147T human gastric and colonic tumor lines; test: cytotoxicity of P2PDox-mAb conjugates to target cells; type: cell-based; details: not shown
Text: The cytotoxicity of P2PDox-mAb conjugates to target cells was examined. hRS7-P2PDox and hMN-15-P2PDox were cytotoxic to MDA-MB-468, AG S, NCI-N87 and Capan-1 solid tumor cell lines (not shown). hMN-14-P2PDox was cytotoxic to Capan-1, BxPC-3 and AsPC-1 human pancreatic tumor lines and AGS, NCI-N87 and LS147T human gastric and colonic tumor lines (not shown). hLL2-P2PDOx was cytotoxic to Daudi, Raji, Ramos and JVM-3 hematopoietic tumor lines (not shown). IC50 values for the conjugates were in the nanomolar concentration range (not shown).

[4] = test system: Capan-1 human pancreatic adenocarcinoma xenografts; test: therapy of Capan-1 xenografts in nude mice; type: in vivo; details: for therapeutic response (FIG. 2): 2.25 mg/kg protein dose twice weekly×2 weeks, compared with hMN-14 conjugate
Procedure: FIG. 2. Therapy in nude mice bearing s.c. human tumor xenografts using 2.25 mg/kg protein dose (0.064 mg/kg of drug dose) of MAb-P2PDox conjugates twice weekly×2 weeks in nude mice with Capan-1 human pancreatic adenocarcinoma xenografts (n=5).
Tumors were measured and mice weighed twice a week.
At 63 days after Capan-1 tumor injection (with therapy starting at 1 days post-innoculation), 0 of 10 mice were alive in the saline control, 10 of 10 mice were alive in mice treated twice weekly×2 weeks with 45 μg of hPAM4-P2PDox, 2 of 10 mice were alive in mice treated twice weekly×2 weeks with 45 μg of hA20-P2PDox, 0 of 10 mice were alive in mice treated twice weekly×4 weeks with 250 μg of hPAM4-SN-38, and 0 of 10 mice were alive in mice treated twice weekly×4 weeks with 250 μg of h20-SN-38.

[5] = test system: Chronic Lymphocytic Leukemia (CLL); test: treatment of CLL patients; type: in vivo, human
Procedure: Patients with previously untreated or relapsed CLL receive 4 doses of 70, 100 or 150 mg P2PDox-veltuzumab injected i.v. every two weeks. Only occasional mild to moderate transient injection reactions are seen and no other safety issues are observed, except for neutropenia, which can be controlled by interrupting therapy until improved or administering a G-CSF leukocyte stimulator, as per conventional practice. […] Objective responses are observed at all dose levels of P2PDox-veltuzumab, but with particularly high responses of 30% (mostly partial responses) at the highest dose. All serum samples evaluated for human anti-veltuzumab antibody (HAHA) are negative.

CEACAM5 = target: T1, CEACAM5 (Homo sapiens, UniProt P06731); test: antibody binding to target antigen after conjugation
T1 sequence (P06731 35-676): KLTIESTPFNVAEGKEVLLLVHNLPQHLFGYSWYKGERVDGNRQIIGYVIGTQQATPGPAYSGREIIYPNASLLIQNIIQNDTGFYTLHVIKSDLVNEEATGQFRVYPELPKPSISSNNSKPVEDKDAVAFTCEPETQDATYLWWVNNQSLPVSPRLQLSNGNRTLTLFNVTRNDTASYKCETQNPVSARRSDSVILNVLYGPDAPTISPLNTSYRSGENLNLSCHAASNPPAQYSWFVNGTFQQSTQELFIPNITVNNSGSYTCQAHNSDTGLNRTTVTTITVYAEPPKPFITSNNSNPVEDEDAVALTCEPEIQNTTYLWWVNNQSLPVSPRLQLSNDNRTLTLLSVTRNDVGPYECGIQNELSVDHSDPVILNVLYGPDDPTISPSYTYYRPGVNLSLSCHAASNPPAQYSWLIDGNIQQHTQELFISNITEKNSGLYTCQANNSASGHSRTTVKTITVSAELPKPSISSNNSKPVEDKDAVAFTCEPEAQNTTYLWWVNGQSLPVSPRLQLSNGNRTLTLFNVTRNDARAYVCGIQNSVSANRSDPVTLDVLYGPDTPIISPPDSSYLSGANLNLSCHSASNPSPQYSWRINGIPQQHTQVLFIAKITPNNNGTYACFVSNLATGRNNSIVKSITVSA
Procedure: Retention of antibody binding was confirmed by cell binding assays comparing binding of the conjugate to unconjugated antibody (Chari, 2008, Acc Chem Res 41:98-107). The potency of the conjugate was tested in a 4-day MTS assay using appropriate target cells.

[6] = test system: DDD of the RII form of PKA; details: cited from earlier work
[7] = test system: HIV-1IIIB/MuLV infected splenocytes; test: HIV-1/MuLV infected cell challenge in mice; type: in vivo; details: doses of 100-200 μg
Procedure: P4/D10-P2PDox is tested in vitro for its efficacy in eliminating HIV-1-infected cells among non-infected cells and in a mouse model by removing HIV-1/MuLV (murine leukemia virus) infected syngeneic cells from the intraperitoneal cavity.
A human T-cell line, CEM-1B, with a genetically integrated MuLV genome is infected with HIV-1IIIB, which leads to the production of pseudoviruses with the HIV-1 genome and the MuLV envelope (Adang et al., PNAS USA 1999, 96:12749-753; Hinkula et al., Cells Tissues Organs 2004, 177:169-184). These virus supernatants are used to infect splenocytes from C57B1/6×DBA F1 K^b/d mice transgenic for HLA-A201. Isogenic mice are challenged with HIV-1IIIB/MuLV infected splenocytes i.p. and are immediately given conjugated antibodies or free antibodies i.p. Ten days after challenge, mice are sacrificed and peritoneal cells collected. Peritoneal cells are pelleted and added to 1×10^6 HIV susceptible Jurkat T-cells or human PBMC grown in 24-well plates. From these secondary cultures, supernatant is removed and fresh medium added every 3-4 days. The amount of infectious HIV recovered in the supernatant is measured for 3 weeks by p24 ELISA.
To test the efficacy of P4/D10-P2PDox in vivo, mice are given isogeneic HIV/MuLV-infected cells together with conjugates intraperitoneally.

[8] = MTD study of hLL1 conjugates in mice
Procedure: The MTD of multiple injections, at a schedule of every four days for a total of four injections (q4dx4) was then determined, using protein doses between 25 μg to 150 μg per injection. At these doses, a cumulative dose of between 100 and 600 μg was given to the animals.

[9] = test system: metastatic ductal adenocarcinoma of the pancreas; test: treatment of a patient with metastatic pancreatic cancer; type: in vivo, human
Procedure: A person with metastatic ductal adenocarcinoma of the pancreas, who has relapsed after prior therapies with FOLFIRINOX followed by Nab-taxol (Abraxane®) plus gemcitabine is given PAM4-P2PDox ADC at a dose of 120 mg every other week for 4 courses, and after a 3-week delay, another course of 2 injections 2 weeks apart are given intravenously.

[10] = twice weekly×2 weeks with 45 μg

hRS7 IgG: unconjugated humanized anti-TROP-2 antibody
specific lysis (ADCC) [1]: 8.5%

hMN-14-P2PDox
effect on tumors, one treatment cycle [2]: little effect on tumor progression | cytotoxicity [3]: cytotoxic

hRS7-SN-38 [reference compound]
therapeutic response (FIG. 3) [2]: better therapeutic responses | therapeutic response (FIG. 2) [4]: better therapeutic responses

hA20-P2PDox
therapeutic response (FIG. 3) [2]: ineffective | effect on tumors, one treatment cycle [2]: little effect on tumor progression | effect on survival ([2]; same dosage schedules (45 μg q4dx4, 90 μg weekly×2, 180 μg single)): no effect on survival | therapeutic response (FIG. 2) [4]: ineffective | mice alive at 63 days after tumor injection [4, 10]: 2 of 10 | objective responses at the highest dose ([5]; 150 mg i.v. every two weeks, 4 doses, mostly partial responses): 30% | B-cell and CLL ablation ([5]; all dosage levels): Rapid B-cell and CLL ablation | human anti-veltuzumab antibody (HAHA) in serum samples ([5]; human, in vivo): negative

P2PDox-hMN-24: P2PDox conjugate printed as hMN-24 (anti-CEACAM5)
effect of conjugation on antibody binding (CEACAM5): lack of effect of conjugation on antibody binding to target antigen

QIEYVAKQIVDYAIHQA [SuperAKAP-IS]
selectivity for the RII isoform of PKA compared with the RI isoform [6]: five order of magnitude higher selectivity

hLL1-P2PDox
protection by control conjugates [7]: None of the P2PDox-conjugated control antibodies (hLL1 or hRS7) provide any protection | effect on tumors, one treatment cycle [2]: little effect on tumor progression | signs of toxicity (weight loss) ([8]; 25 μg i.v. q4dx4): no signs of toxicity | potency compared with 2-PDox conjugate of hLL1 in MTD study ([8]; not shown): much more potent | MTD for fractionated dosing ([8]; protein dose, every 4 days for 2 weeks (q4dx4), after analysis and repetition of the experiment): 45 µg | MTD for multiple injections ([8]; q4dx4, from this experiment): 25 µg | dose tolerated when administered as a single injection ([8]; single injection (not shown)): 100 µg

QIEYLAKQIVDNAIQQA [AKAP-IS]
Kd ([6]; read-out: binding constant for DDD): 0.4 nM

B1: hPAM4-P2PDox (conjugate, chains of the INN, looked up)
VH: QVQLQQSGAEVKKPGASVKVSCEASGYTFPSYVLHWVKQAPGQGLEWIGYINPYNDGTQYNEKFKGKATLTRDTSINTAYMELSRLRSDDTAVYYCARGFGGSYGFAYWGQGTLVTVSS
VL: DIQLTQSPSSLSASVGDRVTMTCSASSSVSSSYLYWYQQKPGKAPKLWIYSTSNLASGVPARFSGSGSGTDFTLTISSLQPEDSASYFCHQWNRYPYTFGGGTRLEIK
modifications: P2PDox (pro-2-pyrrolinodoxorubicin) payload
shrinkage of the sum of the 3 target lesions in the liver ([9]; 120 mg every other week, CT at 8 weeks): 18% | reduction of CA19-9 blood titer ([9]; baseline value of 12,400): 55% | hematological toxicity after the first course ([9]; recovers before the second course): Grade 3 neutropenia | inhibition of tumor growth compared with the SN-38 conjugate of the same antibody ([4]; not shown): more effective at inhibiting growth | mice alive at 63 days after tumor injection [4, 10]: 10 of 10

B2: hPAM4-SN-38: hPAM4 antibody conjugated to SN-38 (conjugate, chains of the INN, looked up)
VH: B1 VH
VL: B1 VL
modifications: SN-38 conjugate
mice alive at 63 days after tumor injection ([4]; twice weekly×4 weeks with 250 μg): 0 of 10
